Twelve compounds from patent US20260022142A1, “MACROCYCLIC IMMUNOMODULATORS” (Bristol-Myers Squibb Company, priority 2022, published 2026) can be followed below.

Bridge positions count the residues as written; N and C are the ends. Square brackets hold non-standard residues; d marks the D form. Peptide text beside a SMILES is read from it. * marks the point of attachment. ξ: configuration not given here. Phe(3-CF3) = N[C@@H](Cc1cccc(C(F)(F)F)c1)C(=O)O; Phe(4-COOH) = N[C@@H](Cc1ccc(C(=O)O)cc1)C(=O)O; Bip = N[C@@H](Cc1ccc(-c2ccccc2)cc1)C(=O)O; NH(CH2)14COOH = O=C(O)CCCCCCCCCCCCCCN*; Phe(3-Me) = Cc1cccc(C[C@H](N)C(=O)O)c1; Val(3-OH) = CC(C)(O)[C@H](N)C(=O)O; 4Pal = N[C@@H](Cc1ccncc1)C(=O)O; Cha = N[C@@H](CC1CCCCC1)C(=O)O; Cit = NC(=O)NCCC[C@H](N)C(=O)O; Thr(3ξ) = CC(O)[C@H](N)C(=O)O; Tle = CC(C)(C)[C@H](N)C(=O)O; Carboxymethyl = O=C(O)C*; Nle = CCCC[C@H](N)C(=O)O; Orn = NCCC[C@H](N)C(=O)O; Aun = NCCCCCCCCCCC(=O)O; Dab = NCC[C@H](N)C(=O)O; Dap = NC[C@H](N)C(=O)O; AEEA = NCCOCCOCC(=O)O; Piv = CC(C)(C)C(=O)*

The experiment deals with T1, PD-1/PD-L1 interaction (PE-labeled human PD-L1-Ig binding to Jurkat cell line over-expressing human PD-1) (Homo sapiens, UniProt Q15116).
T1 construct: expressed in transfected cells; host or cells: Jurkat
T1 sequence (Q15116 25-288): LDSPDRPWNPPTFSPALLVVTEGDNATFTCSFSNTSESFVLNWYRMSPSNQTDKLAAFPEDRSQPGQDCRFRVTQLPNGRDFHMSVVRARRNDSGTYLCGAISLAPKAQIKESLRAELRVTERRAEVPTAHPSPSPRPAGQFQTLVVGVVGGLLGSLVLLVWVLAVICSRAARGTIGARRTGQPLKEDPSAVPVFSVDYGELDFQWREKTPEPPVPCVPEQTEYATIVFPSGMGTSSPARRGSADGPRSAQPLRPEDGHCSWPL
Kind of experiment: Jurkat-PD-1 Cell Binding High-Content Screening Assay (CBA). In kind it is cell-based. The following applies: Jurkat cell line over-expressing human PD-1; PE-labeled PD-L1-Ig 20 nM final; read-out: Jurkat hPD1-PDL1 IC50. An outline of the steps:
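Human PD-L1-Ig carrying a covalent PE label on its Ig tag serves as the probe, applied at 20 nM final to compound-treated (2 h, 37° C) Jurkat-hPD-1 cells in medium with 10% fetal calf serum. After one hour, fixation and nuclear staining precede high-content image analysis.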
As for `CCCC[C@@H]1NC(=O)[C@H](C(C)C)NC(=O)[C@H](CC2CCCCC2)NC(=O)[C@H](CCN)NC(=O)[C@@H](CC(C)C)NC(=O)[C@H](CCCN)NC(=O)[C@H](Cc2ccc(O)cc2)NC(=O)[C@H](Cc2ccc(-c3ccccc3)cc2)NC(=O)[C@H](Cc2ccc(O)cc2)NC(=O)[C@H](Cc2cccc(C)c2)NC(=O)[C@H](CC(=O)O)NC(=O)[C@H](Cc2ccc(OCC(=O)O)cc2)NC(=O)[C@H](CN)NC(=O)CSC[C@@H](C(=O)N[C@@H](CCN)C(=O)NCCCCCCCCCCC(=O)O)NC1=O` [Compound 2714] ({CH2CO}-[Dap]Y(Carboxymethyl)D[Phe(3-Me)]Y[Bip]Y[Orn][dL][Dab][Cha]V[Nle]C[Dab][Aun]-OH; thioether N-14), the IC50 amounted to 406 nM. Take `COc1ccc(C[C@@H]2NC(=O)[C@H](Cc3ccncc3)NC(=O)CSC[C@@H](C(=O)N[C@@H](CCN)C(=O)NCCCCCCCCCCC(=O)O)NC(=O)[C@H](CO)NC(=O)[C@H](C(C)(C)O)NC(=O)[C@H](CC3CCCCC3)NC(=O)[C@H](CCN)NC(=O)[C@@H](CC(C)C)NC(=O)[C@H](CCCN)NC(=O)[C@H](Cc3ccc(OCC(=O)O)cc3)NC(=O)[C@H](Cc3ccc(-c4ccccc4)cc3)NC(=O)[C@H](Cc3ccc(OCC(=O)O)cc3)NC(=O)[C@H](Cc3cccc(C)c3)NC(=O)[C@H](CC(=O)O)NC2=O)cc1` [Compound 2197] ({CH2CO}-[4Pal]Y(Me)D[Phe(3-Me)]Y(Carboxymethyl)[Bip]Y(Carboxymethyl)[Orn][dL][Dab][Cha][Val(3-OH)]SC[Dab][Aun]-OH; thioether N-14): the IC50 was determined as 15.1 nM. For `Cc1cccc(C[C@@H]2NC(=O)[C@H](CC(=O)O)NC(=O)[C@H](Cc3ccc(OCC(=O)O)cc3)NC(=O)[C@H](CN)NC(=O)CSC[C@@H](C(=O)N[C@@H](C)C(=O)N[C@@H](CCN)C(=O)NCC(=O)NCCCCCCCCCCC(=O)O)NC(=O)[C@H]([C@@H](C)O)NC(=O)[C@H](C(C)C)NC(=O)[C@H](CC3CCCCC3)NC(=O)[C@H](CCN)NC(=O)[C@@H](CC(C)C)NC(=O)[C@H](CCCN)NC(=O)[C@H](CCCNC(N)=O)NC(=O)[C@H](Cc3ccc(-c4ccccc4)cc3)NC(=O)[C@H](C(C)C)NC2=O)c1` [Compound 1051] ({CH2CO}-[Dap]Y(Carboxymethyl)D[Phe(3-Me)]V[Bip][Cit][Orn][dL][Dab][Cha]VTCA[Dab]G[Aun]-OH; thioether N-14), the IC50 was found to be 12.3 nM. Consider `Cc1cccc(C[C@@H]2NC(=O)[C@H](CC(=O)O)NC(=O)[C@H](Cc3ccc(OCC(=O)O)cc3)NC(=O)[C@H](CNC(=O)C(C)(C)C)NC(=O)CSC[C@@H](C(=O)N[C@@H](CC(N)=O)C(=O)NCCCCCCCCCCC(=O)O)NC(=O)[C@H](C(C)O)NC(=O)[C@H](C(C)(C)C)NC(=O)[C@H](CC3CCCCC3)NC(=O)[C@H](CCN)NC(=O)[C@@H](CC(C)C)NC(=O)[C@H](CCCN)NC(=O)[C@H](Cc3ccc(OCC(=O)O)cc3)NC(=O)[C@H](Cc3ccc(-c4ccccc4)cc3)NC(=O)[C@H](Cc3ccc(O)cc3)NC2=O)c1` (stereo partly drawn) [Compound 3518] ({CH2CO}-[Dap](Piv)Y(Carboxymethyl)D[Phe(3-Me)]Y[Bip]Y(Carboxymethyl)[Orn][dL][Dab][Cha][Tle][Thr(3ξ)]CN[Aun]-OH; thioether N-14), for which the half-inhibitory concentration (IC50) stood at 35.7 nM. For the compound `CC(C)C[C@H]1NC(=O)[C@H](CCCN)NC(=O)[C@H](C(C)C)NC(=O)[C@H](Cc2ccc(-c3ccccc3)cc2)NC(=O)[C@H](C(C)C)NC(=O)[C@H](Cc2c[nH]c3ccccc23)NC(=O)[C@H](CC(=O)O)NC(=O)[C@H](Cc2ccc(OCC(=O)O)cc2)NC(=O)[C@H](Cc2ccc(OCC(=O)O)cc2)NC(=O)CSC[C@@H](C(=O)N[C@@H](CCCCN)C(=O)NCCCCCCCCCCC(=O)O)NC(=O)[C@H](CCCN)NC(=O)[C@H](C(C)C)NC(=O)[C@H](CC2CCCCC2)NC(=O)[C@H](CCN)NC1=O` [Compound 2537] ({CH2CO}-Y(Carboxymethyl)Y(Carboxymethyl)DWV[Bip]V[Orn][dL][Dab][Cha]V[Orn]CK[Aun]-OH; thioether N-14), the IC50 was determined as 18.9 nM. As to `CC(C)C[C@H]1NC(=O)[C@H](CCCN)NC(=O)[C@H](C(C)C)NC(=O)[C@H](Cc2ccc(-c3ccccc3)cc2)NC(=O)[C@H](C(C)C)NC(=O)[C@H](Cc2c[nH]c3ccccc23)NC(=O)[C@H](CC(=O)O)NC(=O)[C@H](Cc2ccc(OCC(=O)O)cc2)NC(=O)[C@H](CN)NC(=O)CSC[C@@H](C(=O)N[C@@H](C)C(=O)N[C@@H](CCC(=O)O)C(=O)NCC(=O)NCCCCCCCCCCC(=O)O)NC(=O)[C@H]([C@@H](C)O)NC(=O)[C@H](C(C)C)NC(=O)[C@H](CC2CCCCC2)NC(=O)[C@H](Cc2c[nH]cn2)NC1=O` [Compound 1088] ({CH2CO}-[Dap]Y(Carboxymethyl)DWV[Bip]V[Orn][dL]H[Cha]VTCAEG[Aun]-OH; thioether N-14), the IC50 was 25 nM.

With `Cc1cccc(C[C@@H]2NC(=O)[C@H](CC(=O)O)NC(=O)[C@H](Cc3ccc(OCC(=O)O)cc3)NC(=O)[C@H](CCCNC(=N)N)NC(=O)CSC[C@@H](C(=O)N[C@@H](CCCN)C(=O)NCCCCCCCCCCC(=O)O)NC(=O)[C@@H](CCC(N)=O)NC(=O)[C@H](C(C)C)NC(=O)[C@H](CC3CCCCC3)NC(=O)[C@H](CCN)NC(=O)[C@@H](CC(C)C)NC(=O)[C@H](CCN)NC(=O)[C@H](CCCNC(N)=O)NC(=O)[C@H](Cc3ccc(-c4ccccc4)cc3)NC(=O)[C@H](C(C)C)NC2=O)c1` [Compound 2799] ({CH2CO}-RY(Carboxymethyl)D[Phe(3-Me)]V[Bip][Cit][Dab][dL][Dab][Cha]V[dQ]C[Orn][Aun]-OH; thioether N-14), the IC50 came to 20 nM.

Take `Cc1cccc(C[C@@H]2NC(=O)[C@H](CC(=O)O)NC(=O)[C@H](Cc3ccc(OCC(=O)O)cc3)NC(=O)[C@H](Cc3ccc(OCC(=O)O)cc3)NC(=O)CSC[C@@H](C(=O)NCC(=O)N[C@@H](CCCN)C(=O)NCC(=O)NCCCCCCCCCCC(=O)O)NC(=O)[C@H](CO)NC(=O)[C@H](C(C)C)NC(=O)[C@H](CC3CCCCC3)NC(=O)[C@H](CCN)NC(=O)[C@@H](CC(C)C)NC(=O)[C@H](CCCN)NC(=O)[C@H](C(C)C)NC(=O)[C@H](Cc3ccc(-c4ccccc4)cc3)NC(=O)[C@H](CC(C)C)NC2=O)c1` [Compound 1067] ({CH2CO}-Y(Carboxymethyl)Y(Carboxymethyl)D[Phe(3-Me)]L[Bip]V[Orn][dL][Dab][Cha]VSCG[Orn]G[Aun]-OH; thioether N-14): the IC50 worked out at 28.5 nM. Turning to `CC(C)C[C@H]1NC(=O)[C@H](CCCN)NC(=O)[C@H](C(C)C)NC(=O)[C@H](Cc2ccc(-c3ccccc3)cc2)NC(=O)[C@H](C(C)C)NC(=O)[C@H](Cc2c[nH]c3ccccc23)NC(=O)[C@H](CC(=O)O)NC(=O)[C@H](Cc2ccc(OCC(=O)O)cc2)NC(=O)[C@H](CN)NC(=O)CSC[C@@H](C(=O)N[C@@H](CCCCN)C(=O)NCCCCCCCCCCC(=O)O)NC(=O)[C@H]([C@@H](C)O)NC(=O)[C@H](C(C)C)NC(=O)[C@H](CC2CCCCC2)NC(=O)[C@H](Cc2c[nH]cn2)NC1=O` [Compound 1077] ({CH2CO}-[Dap]Y(Carboxymethyl)DWV[Bip]V[Orn][dL]H[Cha]VTCK[Aun]-OH; thioether N-14), the IC50 amounted to 46.7 nM. As to `Cc1cccc(C[C@@H]2NC(=O)[C@H](CC(=O)O)NC(=O)[C@H](Cc3ccc(OCC(=O)O)cc3)NC(=O)[C@H](CN)NC(=O)CSC[C@@H](C(=O)N[C@@H](C)C(=O)N[C@@H](CN)C(=O)NCCCCCCCCCCC(=O)O)NC(=O)[C@H]([C@@H](C)O)NC(=O)[C@H](C(C)C)NC(=O)[C@H](CC3CCCCC3)NC(=O)[C@H](CCN)NC(=O)[C@@H](CC(C)C)NC(=O)[C@H](CCCN)NC(=O)[C@H](CCCNC(N)=O)NC(=O)[C@H](Cc3ccc(-c4ccccc4)cc3)NC(=O)[C@H](C(C)C)NC2=O)c1` [Compound 1057] ({CH2CO}-[Dap]Y(Carboxymethyl)D[Phe(3-Me)]V[Bip][Cit][Orn][dL][Dab][Cha]VTCA[Dap][Aun]-OH; thioether N-14), the IC50 is 15.9 nM. As to `CC(C)C[C@H]1NC(=O)[C@H](CCCN)NC(=O)[C@H](Cc2ccc(O)cc2)NC(=O)[C@H](Cc2ccc(-c3ccccc3)cc2)NC(=O)[C@H](Cc2ccc(O)cc2)NC(=O)[C@H](Cc2c[nH]c3ccccc23)NC(=O)[C@H](CC(=O)O)NC(=O)[C@H](Cc2ccc(C(=O)O)cc2)NC(=O)[C@H](Cc2ccc(OCC(=O)O)cc2)NC(=O)CSC[C@@H](C(=O)NCCOCCOCC(=O)NCCCCCCCCCCC(=O)O)NC(=O)[C@H](CCCCN)NC(=O)[C@H](Cc2ccc(O)cc2)NC(=O)[C@H](CC2CCCCC2)NC(=O)[C@H](CCN)NC1=O` [Compound 2515] ({CH2CO}-Y(Carboxymethyl)[Phe(4-COOH)]DWY[Bip]Y[Orn][dL][Dab][Cha]YKC[AEEA][Aun]-OH; thioether N-14), the IC50 was found to be 40.4 nM. In the case of `CC(C)C[C@H]1NC(=O)[C@H](Cc2cnc[nH]2)NC(=O)[C@H](Cc2ccc(C(=O)O)cc2)NC(=O)[C@H](Cc2ccc(-c3ccccc3)cc2)NC(=O)[C@H](Cc2ccc(C(=O)O)cc2)NC(=O)[C@H](Cc2cccc(C(F)(F)F)c2)NC(=O)[C@H](CC(=O)O)NC(=O)[C@H](Cc2ccc(OCC(=O)O)cc2)NC(=O)[C@H](Cc2ccc(OCC(=O)O)cc2)NC(=O)CSC[C@@H](C(=O)N[C@@H](CCN)C(=O)NCCOCCOCC(=O)NCCOCCOCC(=O)NCCCCCCCCCCCCCCC(=O)O)NC(=O)[C@H](CO)NC(=O)[C@H](C(C)(C)O)NC(=O)[C@H](CC2CCCCC2)NC(=O)[C@H](CCN)NC1=O` [Compound 3840] ({CH2CO}-Y(Carboxymethyl)Y(Carboxymethyl)D[Phe(3-CF3)][Phe(4-COOH)][Bip][Phe(4-COOH)]H[dL][Dab][Cha][Val(3-OH)]SC[Dab][AEEA][AEEA]-{NH(CH2)14COOH}; thioether N-14) it was 340 nM.

By IC50 is commonly meant the concentration at which inhibition is half-maximal.
